{"source": "patent US5892063A", "about": "(Hauser, Inc., priority 1997, dated 1999)", "origin": "cited, not measured here", "key": {"[1]": {"test_system": "microtubule", "details": "relative to paclitaxel; cited from earlier work"}, "[2]": {"test_system": "murine and human xenografts", "details": "cited from earlier work"}, "[3]": {"test_system": "tumor models", "details": "vs paclitaxel, cisplatin, cyclophosphamide, doxorubicin; same tumor models; cited from earlier work"}, "[4]": {"details": "cited from earlier work"}, "[5]": {"test_system": "murine and human tumor cell lines", "details": "cited from earlier work"}}}
{"molecule": "CC(=O)O[C@@]12CO[C@@H]1C[C@H](O)[C@@]1(C)C(=O)[C@H](O)C3=C(C)[C@@H](OC(=O)[C@H](O)[C@@H](NC(=O)OC(C)(C)C)c4ccccc4)C[C@@](O)([C@@H](OC(=O)c4ccccc4)[C@H]21)C3(C)C", "note": "[Docetaxel, docetaxel]", "values": [{"measurement": "potency as inhibitor of microtubule depolymerization vs paclitaxel", "setting": "[1]", "result": "twice as potent"}, {"measurement": "in vivo preclinical activity", "setting": "[2]", "result": "impressive"}, {"measurement": "cytotoxic activity vs other antineoplastic agents", "setting": "[3]", "result": "higher cytoxic activity than other antineoplastic agents"}, {"measurement": "aqueous solubility", "setting": "[4]", "result": "low aqueous solubility"}, {"measurement": "in vitro cytotoxicity", "setting": "[5]", "result": "impressive"}]}
